Measurements reported in PubChem BioAssay AID200 (DTP/NCI, 2004).
“And” between values parts separate entries of the source, which are not always exact repeats. Equal values may be shown once. Toxic doses and inconclusive results are not listed.

Tested on: B6C3F1 mice, B16 melanoma ip, median survival T/C
Assay: NCI In Vivo Anticancer Drug Screen. Data for tumor model B16 Melanoma (intraperitoneal) in B6C3F1 mice
Details: endpoint: median survival time, schedule: Q01DX009 (ip), higher = longer survival
Method in brief: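 Antitumor effect was judged in mice with transplanted tumors by dividing the treated group's survival measure by that of vehicle controls.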

[1] = dose: 25.0 mg/kg/injection, vehicle: saline with Tween-80
[2] = dose: 50.0 mg/kg/injection, vehicle: saline with Tween-80
[3] = dose: 100.0 mg/kg/injection, vehicle: saline with Tween-80
[4] = dose: 12.5 mg/kg/injection, vehicle: saline with Tween-80
[5] = dose: 200.0 mg/kg/injection, vehicle: saline with Tween-80
[6] = dose: 400.0 mg/kg/injection, vehicle: saline with Tween-80

N=c1c(C(=O)OCc2ccccc2)ncc(CCl)n1O
T/C [1]: 94 % of control
T/C [2]: 95 % of control
T/C [3]: 99 % of control

C[n+]1c(/C=C\C=C\N2CCCCC2)sc2ccccc21
T/C (dose: 0.12 mg/kg/injection, vehicle: Klucel (hydroxypropylcellulose) (HPC)): 107 % of control
T/C (dose: 0.25 mg/kg/injection, vehicle: Klucel (hydroxypropylcellulose) (HPC)): 95 % of control
T/C (dose: 0.5 mg/kg/injection, vehicle: Klucel (hydroxypropylcellulose) (HPC)): 90 % of control
T/C (dose: 1.0 mg/kg/injection, vehicle: Klucel (hydroxypropylcellulose) (HPC)): 95 % of control
T/C (dose: 2.0 mg/kg/injection, vehicle: Klucel (hydroxypropylcellulose) (HPC)): 110 % of control

O=C1NC(=O)C2C3C=CC(C12)C1C2C(=O)NC(=O)C2C31 (configuration not stated)
T/C [4]: 108 % of control and 100 % of control
T/C (dose: 19.7 mg/kg/injection, vehicle: water): 107 % of control
T/C [1]: 114 % of control and 104 % of control
T/C (dose: 32.9 mg/kg/injection, vehicle: water): 98 % of control
T/C [2]: 117 % of control
T/C (dose: 54.8 mg/kg/injection, vehicle: water): 117 % of control
T/C [3]: 120 % of control and 124 % of control

N[C@@H](Cc1ccc(O)c(O)c1)C(=O)O
T/C (dose: 50.0 mg/kg/injection, vehicle: suspension in saline): 94 % of control
T/C (dose: 100.0 mg/kg/injection, vehicle: suspension in saline): 110 % of control
T/C (dose: 200.0 mg/kg/injection, vehicle: suspension in saline): 100 % of control
T/C (dose: 400.0 mg/kg/injection, vehicle: suspension in saline): 101 % of control and 104 % of control
T/C (dose: 800.0 mg/kg/injection, vehicle: suspension in saline): 93 % of control and 105 % of control
T/C (dose: 1200.0 mg/kg/injection, vehicle: suspension in saline): 97 % of control
T/C (dose: 1600.0 mg/kg/injection, vehicle: suspension in saline): 100 % of control

CC(C)C1OC(=O)/C=C/C=C/C=C/C=C/C=C/CC(O)C(C)C(O)CC(O)CC(O)CC(O)CC(O)CC(O)CC(O)/C=C/C1C (configuration not stated)
T/C (dose: 1.56 mg/kg/injection, vehicle: saline): 101 % of control
T/C (dose: 3.12 mg/kg/injection, vehicle: saline): 100 % of control
T/C (dose: 6.25 mg/kg/injection, vehicle: saline): 102 % of control

S=c1[nH]cc2cnccn12
T/C [4]: 94 % of control and 95 % of control
T/C [1]: 93 % of control and 98 % of control
T/C [2]: 93 % of control and 96 % of control
T/C [3]: 97 % of control and 100 % of control
T/C [5]: 91 % of control and 92 % of control
T/C [6]: 97 % of control

CC(C)(C)OC(=O)NCC(=O)ON1C(=O)CCC1=O
T/C [2]: 100 % of control
T/C [3]: 91 % of control

O=C(N/N=C/c1ccccc1O)c1cccc([N+](=O)[O-])c1
T/C [3]: 103 % of control
T/C [5]: 87 % of control
T/C [6]: 96 % of control

CC[C@@]1(O)C[C@H](OC2CC(N(C)C)C(OC3CC(O)C(OC4CCC(=O)C(C)O4)C(C)O3)C(C)O2)c2c(cc3c(c2O)C(=O)c2c(O)cccc2C3=O)[C@H]1C(=O)OC (some centres not stated)
T/C (dose: 3.0 mg/kg/injection, vehicle: saline with Tween-80): 151 % of control

CCc1nc(N)nc(N)c1-c1ccc(Cl)c(N=[N+]=[N-])c1
T/C (dose: 12.5 mg/kg/injection, vehicle: distilled water + Tween-80): 100 % of control
T/C (dose: 25.0 mg/kg/injection, vehicle: distilled water + Tween-80): 98 % of control and 102 % of control
T/C (dose: 50.0 mg/kg/injection, vehicle: distilled water + Tween-80): 108 % of control (2×) and 109 % of control
T/C (dose: 100.0 mg/kg/injection, vehicle: distilled water + Tween-80): 122 % of control
T/C (dose: 200.0 mg/kg/injection, vehicle: distilled water + Tween-80): 157 % of control and 169 % of control
